Reference: US20250171495A1, “MUTLI-TARGETED SERINE PROTEASE INHIBITORS FOR TREATMENT OF CANCER AND VIRAL INFECTION” (Washington University, priority 2023, published 2025)

Key:
Assay type in all cases: biochemical
[1] = target: T1, HGFA (Homo sapiens, UniProt Q04756); experiment: HyCoSuL P4-P2 substrate specificity screening, HGFA; conditions: for P2 Position Substrate Activity for HGFA (percent substrate cleavage/proteolysis): residue fixed at P2 position; for P3 Position Various Amino Acids Substrate Activity, HGFA (percent substrate cleavage/proteolysis): residue fixed at P3 position of substrate library; for P4 Position Various Amino Acids Substrate Activity, HGFA (percent substrate proteolysis/cleavage): residue fixed at P4 position of substrate library; for P3 Position Substrate Activity for HGFA (percent substrate cleavage/proteolysis): residue fixed at P3 position
T1 sequence (Q04756 373-655): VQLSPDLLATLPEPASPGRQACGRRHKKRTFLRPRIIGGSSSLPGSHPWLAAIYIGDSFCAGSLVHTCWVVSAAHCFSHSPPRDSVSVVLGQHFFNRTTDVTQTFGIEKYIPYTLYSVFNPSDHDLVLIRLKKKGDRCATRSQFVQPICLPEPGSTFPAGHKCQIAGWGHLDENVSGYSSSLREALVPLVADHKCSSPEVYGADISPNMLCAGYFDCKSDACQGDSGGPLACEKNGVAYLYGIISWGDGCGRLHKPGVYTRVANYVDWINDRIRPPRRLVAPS

[2] = target: TMPRSS2 (Homo sapiens, UniProt O15393); experiment: PS-SCL / HyCoSuL substrate specificity screening, TMPRSS2; conditions: for P2 Position Substrate Activity for TMPRSS2 (percent substrate cleavage/proteolysis): residue fixed at P2 position of substrate library; for P3 Position Various Amino Acids Substrate Activity, TMPRSS2 (percent substrate cleavage/proteolysis) / P3 Position Substrate Activity for TMPRSS2 (percent substrate cleavage/proteolysis): residue fixed at P3 position of substrate library
TMPRSS2, sequence (O15393 whole entry): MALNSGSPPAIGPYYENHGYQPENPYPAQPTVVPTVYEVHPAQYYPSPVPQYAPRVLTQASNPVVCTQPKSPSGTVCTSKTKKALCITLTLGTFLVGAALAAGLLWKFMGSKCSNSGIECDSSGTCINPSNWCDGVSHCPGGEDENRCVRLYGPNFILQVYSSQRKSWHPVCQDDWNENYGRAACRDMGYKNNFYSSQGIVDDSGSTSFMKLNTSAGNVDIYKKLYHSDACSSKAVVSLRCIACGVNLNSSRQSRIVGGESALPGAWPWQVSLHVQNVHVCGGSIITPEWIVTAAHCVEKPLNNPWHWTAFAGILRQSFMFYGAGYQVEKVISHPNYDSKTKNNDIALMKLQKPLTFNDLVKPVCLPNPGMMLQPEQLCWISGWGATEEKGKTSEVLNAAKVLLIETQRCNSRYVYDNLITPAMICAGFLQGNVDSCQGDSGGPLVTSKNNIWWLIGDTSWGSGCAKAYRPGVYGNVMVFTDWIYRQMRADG

[3] = target: T2, hepsin (Homo sapiens, UniProt P05981); experiment: HyCoSuL P4-P2 substrate specificity screening, hepsin; conditions: for P2 Position Substrate Activity for hepsin (percent substrate cleavage/proteolysis): residue fixed at P2 position; for P3 Position Various Amino Acids Substrate Activity, hepsin (percent substrate cleavage/proteolysis): residue fixed at P3 position of substrate library; for P4 Position Various Amino Acids Substrate Activity, hepsin (percent substrate proteolysis/cleavage): residue fixed at P4 position of substrate library; for P3 Position Substrate Activity for hepsin (percent substrate cleavage/proteolysis): residue fixed at P3 position
T2 construct: purchased R&D Systems 4776-SE-010
T2 sequence (P05981 163-417 limits assumed): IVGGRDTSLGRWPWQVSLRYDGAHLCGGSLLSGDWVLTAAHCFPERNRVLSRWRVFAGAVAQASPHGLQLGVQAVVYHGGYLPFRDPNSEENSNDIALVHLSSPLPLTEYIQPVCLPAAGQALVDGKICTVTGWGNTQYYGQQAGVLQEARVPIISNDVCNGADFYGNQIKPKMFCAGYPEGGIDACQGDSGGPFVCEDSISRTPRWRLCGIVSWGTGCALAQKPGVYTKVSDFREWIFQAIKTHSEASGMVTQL
T2 sequence (P05981 1-162 partner limits assumed): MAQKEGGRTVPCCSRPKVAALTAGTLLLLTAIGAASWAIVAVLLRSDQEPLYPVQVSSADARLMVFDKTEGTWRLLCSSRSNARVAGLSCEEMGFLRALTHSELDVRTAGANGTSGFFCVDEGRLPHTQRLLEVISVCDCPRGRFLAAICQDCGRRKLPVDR

[4] = target: T3, matriptase (Homo sapiens, UniProt Q9Y5Y6); experiment: HyCoSuL P4-P2 substrate specificity screening, matriptase; conditions: for P2 Position Substrate Activity for matriptase (percent substrate cleavage/proteolysis): residue fixed at P2 position; for P3 Position Various Amino Acids Substrate Activity, matriptase (percent substrate cleavage/proteolysis): residue fixed at P3 position of substrate library; for P4 Position Various Amino Acids Substrate Activity, matriptase (percent substrate proteolysis/cleavage): residue fixed at P4 position of substrate library; for P3 Position Substrate Activity for matriptase (percent substrate cleavage/proteolysis): residue fixed at P3 position
T3 sequence (Q9Y5Y6 1-855): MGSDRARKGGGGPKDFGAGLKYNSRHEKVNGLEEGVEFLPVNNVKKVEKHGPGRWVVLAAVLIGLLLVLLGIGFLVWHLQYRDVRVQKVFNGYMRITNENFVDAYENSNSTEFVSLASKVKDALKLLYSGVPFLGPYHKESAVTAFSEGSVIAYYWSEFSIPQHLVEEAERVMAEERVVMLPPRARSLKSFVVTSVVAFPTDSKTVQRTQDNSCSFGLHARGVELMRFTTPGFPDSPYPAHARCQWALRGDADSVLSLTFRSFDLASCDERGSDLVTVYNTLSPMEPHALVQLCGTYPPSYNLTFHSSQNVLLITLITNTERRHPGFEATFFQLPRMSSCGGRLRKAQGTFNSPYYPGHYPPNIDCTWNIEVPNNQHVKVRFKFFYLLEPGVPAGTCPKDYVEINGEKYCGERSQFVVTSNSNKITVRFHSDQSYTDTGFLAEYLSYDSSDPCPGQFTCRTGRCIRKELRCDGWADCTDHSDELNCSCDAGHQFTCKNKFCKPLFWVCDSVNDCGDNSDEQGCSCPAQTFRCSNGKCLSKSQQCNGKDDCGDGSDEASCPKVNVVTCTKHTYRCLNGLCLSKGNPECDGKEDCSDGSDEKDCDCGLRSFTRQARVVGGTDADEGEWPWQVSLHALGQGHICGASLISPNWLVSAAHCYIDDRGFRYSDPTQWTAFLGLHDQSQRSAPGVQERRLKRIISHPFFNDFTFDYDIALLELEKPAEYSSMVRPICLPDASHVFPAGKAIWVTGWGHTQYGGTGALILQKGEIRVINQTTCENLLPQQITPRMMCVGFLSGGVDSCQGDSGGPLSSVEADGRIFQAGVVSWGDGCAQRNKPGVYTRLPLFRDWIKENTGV

[5] = P1-Arg HyCoSuL, 100 μM, best recognized amino acid set to 100%
[6] = best recognized amino acid set to 100%
[7] = residue fixed at P4 position of substrate library
[8] = residue fixed at P4 position, P1-Arg HyCoSuL, 100 μM, best recognized amino acid set to 100%

Row | P2 Position Substrate Activity for HGFA (percent substrate cleavage/proteolysis) [1, 5] | P3 Position Various Amino Acids Substrate Activity, HGFA (percent substrate cleavage/proteolysis) [1] | P4 Position Various Amino Acids Substrate Activity, HGFA (percent substrate proteolysis/cleavage) [1] | P2 Position Substrate Activity for TMPRSS2 (percent substrate cleavage/proteolysis) [2, 6] | P3 Position Various Amino Acids Substrate Activity, TMPRSS2 (percent substrate cleavage/proteolysis) [2] | P4 Position Various Amino Acids Substrate Activity, TMPRSS2 (percent substrate proteolysis/cleavage) [2, 7] | P2 Position Substrate Activity for hepsin (percent substrate cleavage/proteolysis) [3, 5] | P3 Position Various Amino Acids Substrate Activity, hepsin (percent substrate cleavage/proteolysis) [3] | P4 Position Various Amino Acids Substrate Activity, hepsin (percent substrate proteolysis/cleavage) [3] | P2 Position Substrate Activity for matriptase (percent substrate cleavage/proteolysis) [4, 5] | P3 Position Various Amino Acids Substrate Activity, matriptase (percent substrate cleavage/proteolysis) [4] | P4 Position Various Amino Acids Substrate Activity, matriptase (percent substrate proteolysis/cleavage) [4] | P4 Position Substrate Activity for HGFA (percent substrate cleavage/proteolysis) [1, 8] | P4 Position Substrate Activity for TMPRSS2 (percent substrate cleavage/proteolysis) ([2]; residue fixed at P4 position of substrate library, best recognized amino acid set to 100%) | P4 Position Substrate Activity for hepsin (percent substrate cleavage/proteolysis) [3, 8] | P4 Position Substrate Activity for matriptase (percent substrate cleavage/proteolysis) [4, 8] | Substance | P3 Position Substrate Activity for HGFA (percent substrate cleavage/proteolysis) [1, 5] | P3 Position Substrate Activity for TMPRSS2 (percent substrate cleavage/proteolysis) [2, 6] | P3 Position Substrate Activity for hepsin (percent substrate cleavage/proteolysis) [3, 5] | P3 Position Substrate Activity for matriptase (percent substrate cleavage/proteolysis) [4, 5]
1 | 6.32% | 13.41% | 6.44% | 0.00% | 32.80% | 33.20% | 32.27% | 29.53% | 36.68% | 1% | 21% | 18% | – | – | – | – | L-Cit | – | – | – | –
2 | 1.49% | – | 13.31% | 4.32% | – | 16.80% | 10.01% | – | 35.65% | 9% | 52% | 16% | – | – | – | – | L-Dap | 24.27% | 43.61% | 48.71% | 51.80%
3 | 0.89% | 3.47% | 1.96% | 6.03% | 52.35% | 26.44% | 0.00% | 16.72% | 0.76% | 1% | 18% | 0% | – | – | – | – | L-Gln | – | – | – | –
4 | 3.35% | 15.98% | 9.01% | 6.08% | 56.51% | 9.81% | 12.19% | 58.69% | 29.82% | 6% | 44% | 18% | – | – | – | – | L-Glu | – | – | – | –
5 | 4.00% | 11.93% | 8.90% | 15.38% | 26.27% | 24.98% | 31.24% | 43.05% | 25.35% | 30% | 17% | 10% | – | – | – | – | L-His | – | – | – | –
6 | 3.95% | 2.18% | – | 10.38% | 2.19% | – | 38.67% | 4.70% | – | 2% | 0% | 50% | 10.66% | 33.28% | 37.81% | 50.16% | L-Hyp | – | – | – | –
7 | 4.94% | 9.06% | 14.09% | 7.29% | 13.26% | 63.74% | 45.68% | 11.37% | 47.02% | 3% | 13% | 32% | – | – | – | – | L-Ile | – | – | – | –
8 | 100.00% | 13.71% | 10.18% | 5.90% | 18.81% | 30.24% | 100.00% | 19.51% | 33.10% | 12% | 22% | 17% | – | – | – | – | L-Leu | – | – | – | –

Row | Substance | P2 Position Substrate Activity for HGFA (percent substrate cleavage/proteolysis) [1, 5] | P3 Position Various Amino Acids Substrate Activity, HGFA (percent substrate cleavage/proteolysis) [1] | P4 Position Various Amino Acids Substrate Activity, HGFA (percent substrate proteolysis/cleavage) [1] | P2 Position Substrate Activity for TMPRSS2 (percent substrate cleavage/proteolysis) [2, 6] | P3 Position Various Amino Acids Substrate Activity, TMPRSS2 (percent substrate cleavage/proteolysis) [2] | P4 Position Various Amino Acids Substrate Activity, TMPRSS2 (percent substrate proteolysis/cleavage) [2, 7] | P2 Position Substrate Activity for hepsin (percent substrate cleavage/proteolysis) [3, 5] | P3 Position Various Amino Acids Substrate Activity, hepsin (percent substrate cleavage/proteolysis) [3] | P4 Position Various Amino Acids Substrate Activity, hepsin (percent substrate proteolysis/cleavage) [3] | P2 Position Substrate Activity for matriptase (percent substrate cleavage/proteolysis) [4, 5] | P3 Position Various Amino Acids Substrate Activity, matriptase (percent substrate cleavage/proteolysis) [4] | P4 Position Various Amino Acids Substrate Activity, matriptase (percent substrate proteolysis/cleavage) [4] | P4 Position Substrate Activity for HGFA (percent substrate cleavage/proteolysis) [1, 8] | P4 Position Substrate Activity for TMPRSS2 (percent substrate cleavage/proteolysis) ([2]; residue fixed at P4 position of substrate library, best recognized amino acid set to 100%) | P4 Position Substrate Activity for hepsin (percent substrate cleavage/proteolysis) [3, 8] | P4 Position Substrate Activity for matriptase (percent substrate cleavage/proteolysis) [4, 8] | P3 Position Substrate Activity for HGFA (percent substrate cleavage/proteolysis) [1, 5] | P3 Position Substrate Activity for TMPRSS2 (percent substrate cleavage/proteolysis) [2, 6] | P3 Position Substrate Activity for hepsin (percent substrate cleavage/proteolysis) [3, 5] | P3 Position Substrate Activity for matriptase (percent substrate cleavage/proteolysis) [4, 5]
9 | L-Dab | 0.50% | – | 16.76% | 0.00% | – | 12.90% | 13.49% | – | 47.53% | 0% | 66% | 32% | – | – | – | – | 29.40% | 36.73% | 48.55% | 66.02%
